Like-named read-outs stand apart in the source and are kept apart here.
Columns and labels:
NDM-1 = NDM-1 (Klebsiella pneumoniae, UniProt C7C422); test: biochemical; assay type: biochemical; conditions: read-out: NDM-1 IC50
IMP-1 = IMP-1 (Serratia marcescens, UniProt P52699); test: biochemical; assay type: biochemical; conditions: read-out: IMP-1 IC50
VIM-1 = VIM-1 (Pseudomonas aeruginosa (strain ATCC 15692 / DSM 22644 / CIP 104116 / JCM 14847 / LMG 12228 / 1C / PRS 101 / PAO1), UniProt A0A0F7KYQ8); test: Enzyme activity: determination of IC50, fluorescence assay with CCF2-FA substrate (VIM-1); assay type: biochemical
[1] = test system: Escherichia coli expressing NDM-1 (CLB30005); test: Antibiotic potentiation activity: synergistic concentration (MITC95) with imipenem, OD600 growth; assay type: cell-based; conditions: for Escherichia coli MITC95: Escherichia coli expressing NDM-1 (CLB30005), 95% growth inhibition; for Escherichia coli expressing NDM-1 (CLB 30005) MITC95: concentration giving 95% inhibition of bacterial growth
In short: (§1)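 Overnight colonies (35 °C) were suspended in saline, diluted 1:100 into 1.1× CAMHB, and exposed to test compound with imipenem at 4 μg/ml (optionally 1 μg/ml) in assay. After 22–24 h at 35 °C, growth was read by absorbance.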

[2] = test system: Escherichia coli expressing NDM-1 (CLB30016); test: as above; assay type: cell-based; conditions: for Escherichia coli MITC95: Escherichia coli expressing NDM-1 (CLB30016), 95% growth inhibition; for Escherichia coli expressing NDM-1 (CLB 30016) MITC95: concentration giving 95% inhibition of bacterial growth
In short: as §1

[3] = test system: Klebsiella pneumoniae expressing VIM-1 (IHMA599644); test: as above; assay type: cell-based; conditions: for Klebsiella pneumoniae MITC95: Klebsiella pneumoniae expressing VIM-1 (IHMA599644), 95% growth inhibition; for Klebsiella pneumoniae expressing VIM-1 (IHMA 599644) MITC95: concentration giving 95% inhibition of bacterial growth
In short: as §1

[4] = test system: Serratia marcescens expressing IMP-1 (CL5741); test: as above; assay type: cell-based; conditions: for Serratia marcescens MITC95: Serratia marcescens expressing IMP-1 (CL5741), 95% growth inhibition; for Serratia marcescens expressing IMP-1 (CL5741) MITC95: concentration giving 95% inhibition of bacterial growth
In short: as §1

[5] = NDM-1 enzyme, CCF2-FA fluorescence assay
[6] = IMP-1 enzyme, CCF2-FA fluorescence assay
[7] = VIM-1 enzyme, CCF2-FA fluorescence assay, read-out: VIM-1 IC50
[8] = fluorescence assay with CCF2-FA substrate
[9] = fluorescence assay with CCF2-FA substrate, read-out: VIM-1 IC50

Chain of NDM-1 (C7C422 whole entry, looked up, species assumed): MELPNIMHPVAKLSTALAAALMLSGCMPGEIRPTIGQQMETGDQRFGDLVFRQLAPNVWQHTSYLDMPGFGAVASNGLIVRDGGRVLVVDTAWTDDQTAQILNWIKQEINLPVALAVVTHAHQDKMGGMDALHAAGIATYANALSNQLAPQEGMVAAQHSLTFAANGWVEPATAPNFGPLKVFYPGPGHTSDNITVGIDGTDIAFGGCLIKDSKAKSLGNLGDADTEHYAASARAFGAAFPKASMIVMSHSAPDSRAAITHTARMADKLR
Chain of IMP-1 (P52699 whole entry, looked up): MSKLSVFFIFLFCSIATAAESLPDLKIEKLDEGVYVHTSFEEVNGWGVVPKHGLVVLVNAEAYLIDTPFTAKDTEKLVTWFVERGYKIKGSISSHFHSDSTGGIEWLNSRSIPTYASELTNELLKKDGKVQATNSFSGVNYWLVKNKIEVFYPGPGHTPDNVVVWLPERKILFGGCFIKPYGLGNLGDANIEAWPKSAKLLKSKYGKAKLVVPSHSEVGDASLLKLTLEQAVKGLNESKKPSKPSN

Row | SMILES | IC50 (NDM-1; [5]) | IC50 (IMP-1; [6]) | IC50 (VIM-1; [7]) | Escherichia coli MITC95 [1] | Escherichia coli MITC95 [2] | Klebsiella pneumoniae MITC95 [3] | Serratia marcescens MITC95 [4] | IC50 (NDM-1; [8]) | IC50 (IMP-1; [8]) | IC50 (VIM-1; [9]) | Escherichia coli expressing NDM-1 (CLB 30005) MITC95 [1] | Escherichia coli expressing NDM-1 (CLB 30016) MITC95 [2] | Klebsiella pneumoniae expressing VIM-1 (IHMA 599644) MITC95 [3] | Serratia marcescens expressing IMP-1 (CL5741) MITC95 [4] | IC50 (VIM-1; VIM-1 IC50, fluorescence assay with CCF2-FA substrate)
1 | NS(=O)(=O)c1cccc(-c2cnc3ccoc3c2)c1-c1nn[nH]n1 [Example 311, 3-(furo[3,2-b]pyridin-6-yl)-2-(2H-tetrazol-5-yl)benzenesulfonamide] | 1.11 nM | 129 nM | 8.16 nM | 0.1953 µM | 0.7813 µM | 4.688 µM | 3.906 µM |  |  |  |  |  |  |  | 
2 | NS(=O)(=O)c1cccc(-c2cnc3cc[nH]c3c2)c1-c1nn[nH]n1 [Example 310, 3-(1H-pyrrolo[3,2-b]pyridin-6-yl)-2-(2H-tetrazol-5-yl)benzenesulfonamide] | 0.994 nM | 420 nM | 46 nM | 0.1953 µM | 0.02344 µM | 4.167 µM | 9.375 µM |  |  |  |  |  |  |  | 
3 | NS(=O)(=O)c1nccc(-c2ccc(CO)cc2)c1-c1nnn[nH]1 [Example 181, 4-(4-(Hydroxymethyl)phenyl)-3-(1H-tetrazol-5-yl)pyridine-2-sulfonamide] |  |  |  |  |  |  |  | 27.9 nM | 375 nM | 184 nM | 1.953 µM | 0.6727 µM | 18.75 µM | 12.5 µM | 
4 | NS(=O)(=O)c1cccc(-c2ccc(C3CCNC3)cc2)c1-c1nnn[nH]1 (centres unmarked) [Example 180, 4′-(pyrrolidin-3-yl)-2-(1H-tetrazol-5-yl)-[1,1′-biphenyl]-3-sulfonamide] |  |  |  |  |  |  |  | 9.91 nM | 113 nM | 22.4 nM | 0.3906 µM | 0.5 µM | 4.688 µM | 3.125 µM | 
5 | CC(=O)Nc1ccc(-c2ccnc(S(N)(=O)=O)c2-c2nn[nH]n2)cc1 [Example 214, N-(4-(2-sulfamoyl-3-(2H-tetrazol-5-yl)pyridin-4-yl)phenyl)acetamide] |  |  |  |  |  |  |  | 13.2 nM | 98.4 nM | 129 nM | 0.1953 µM | 0.375 µM | 37.5 µM | 3.344 µM | 
6 | CS(=O)(=O)Nc1ccc(-c2cccc(S(N)(=O)=O)c2-c2nn[nH]n2)cc1 [Example 82, 4′-[(methylsulfonyl)amino]-2-(2H-tetrazol-5-yl)biphenyl-3-sulfonamide] |  |  |  |  |  |  |  | 1.43 nM | 22.2 nM |  | 1.953 µM | 0.5859 µM | 12.5 µM | 3.125 µM | 7.79 nM
7 | NS(=O)(=O)c1cccc(-c2cnc3[nH]ncc3c2)c1-c1nn[nH]n1 [Example 309, 3-(1H-pyrazolo[3,4-b]pyridin-5-yl)-2-(2H-tetrazol-5-yl)benzenesulfonamide] | 1.35 nM | 326 nM |  | 0.3906 µM | 0.7813 µM | 5.729 µM | 8.333 µM |  |  |  |  |  |  |  | 
8 | Nc1ncc(-c2cccc(S(N)(=O)=O)c2-c2nn[nH]n2)cc1F [Example 314, 3-(6-amino-5-fluoropyridin-3-yl)-2-(2H-tetrazol-5-yl)benzenesulfonamide] | 3.65 nM | 292 nM |  | 0.1953 µM | 0.3906 µM | 3.906 µM | 5.469 µM |  |  |  |  |  |  |  | 
9 | NS(=O)(=O)c1nccc(-c2ccccc2)c1-c1nn[nH]n1 [Example 207, 4-phenyl-3-(2H-tetrazol-5-yl)pyridine-2-sulfonamide] |  |  |  |  |  |  |  | 35.1 nM | 373 nM | 201 nM | 0.1953 µM | 0.5 µM |  |  | 

— patent publication US9708336B2, “Metallo-beta-lactamase inhibitors” (priority 2014, dated 2017)
